The structures appear in SMILES notation.

Experiment [1] has as its system NQO1 specific enzyme activity in BEAS-2B cells. The experiment is described as follows: BEAS-2B NQO1 MTT Assay. The class given is cell-based. The settings on record: NQO1 specific activity induction. From the text:
NAD(P)H:quinone oxidoreductase 1 (NQO1), also called DT diaphorase, is a homodimeric FAD-containing enzyme that catalyzes obligatory NAD(P)H-dependent two-electron reductions of quinones and protects cells against the toxic and neoplastic effects of free radicals and reactive oxygen species arising from one-electron reductions. The transcription of NQO1 is finely regulated by NRF2, and thus NQO1 activity is a good marker for NRF2 activation. On day one, frozen BEAS-2B cells (ATCC) are thawed in a water bath, counted, and re-suspended at a concentration of 250,000 cells/mL. Fifty microliters of cells are plated in 384 well black clear-bottomed plates. Plates are incubated at 37° C., 5% CO2 overnight. On day two, plates are centrifuged and 50 nL of compound or controls are added to the cells. Plates are then incubated at 37° C., 5% CO2 for 48 hours. On day four, medium is aspirated from the plate and crude cell lysates are made by adding 13 uL of 1× Cell Signaling Technologies lysis buffer with 1 Complete, Mini, EDTA-free Protease Inhibitor Tablet (Roche) for each 10 mL of lysis buffer. After lysis plates are incubated for 20 minutes at room temperature. Two microliters of lysate are removed for use in Cell Titer Glo assay (Promega) and MTT cocktail is prepared (Prochaska et. al. 1998) for measurement of NQO1 activity. Fifty microliters of MTT cocktail is added to each well, plate is centrifuged, and analyzed on an Envision plate reader (Perkin Elmer) using Absorbance 570 nm label for 30 minutes. Product formation is measured kinetically and the pEC50 of NQO1 specific activity induction is calculated by plotting the change in absorbance (Delta OD/min) versus the log of compound concentration followed by 3-parameter fitting.

A further experiment deals with T1, NRF2/Keap1 (Homo sapiens, UniProt Q14145).
T1 construct: full length NRF2 protein and full length Keap1 protein (Keap1 exists a dimer) are used
The experiment is described as follows: NRF2-Keap1 TR-FRET Assay (full length NRF2 and full length Keap1). It counts as binding. The settings on record: 25 nM Keap1-FlagHis, 50 nM biotin-NRF2 added. From the text:
In the NRF2-Keap1 TR-FRET (time-resolved fluorescence resonance energy transfer) assay, full length NRF2 protein and full length Keap1 protein (Keap1 exists a dimer) are used. The assay detects the ability of compound to displace the binding of FlagHis-tagged Keap1 with biotinylated, Avi-tagged NRF2 protein. Biotin-NRF2 binds to streptavidin-europium (a component of the detection mix) and Keap1-FlagHis is recognized by anti-Flag APC (allophycocyanin) antibody (also a component of the detection mix). If binding occurs between the two proteins, there will be an energy transfer from the Eu+3 (donor) at 615 nm to the APC (acceptor) at 665 nm. A potential Keap1 inhibitor will cause a reduction in the TR-FRET signal by interfering with the binding of Keap1 to NRF2.
One hundred nanoliters of 100× compound dose response curves (serial 3-fold dilutions) in DMSO are stamped using an Echo liquid handling system (Labcyte) into 384-well, low volume, black assay plates (Greiner, #784076), with DMSO in columns 6 and 18. The top concentration of compound is located in columns 1 and 13. All reagents are diluted in assay buffer (50 mM Tris, pH 8.0, 5 mM MgCl2, 100 mM NaCl, 0.005% BSA, 1 mM DTT, and 2 mM CHAPS). The BSA, DTT, and CHAPS are added to the assay buffer on the day of assay. Using a Multidrop Combi (Thermo Electron Corporation) equipped with a metal tip dispenser, 5 ul of 25 nM Keap1-FlagHis protein is added to all wells of the compound plate, with the exception of the wells in column 18. Wells in column 18 receive 5 ul of assay buffer instead. Plates are centrifuged at 500 rpm for 1 minute, covered with a plate lid, and incubated at 37° C. for 2.25 hours. Plates are then removed from the incubator and allowed to cool to RT for 15 minutes. Five microliters of 50 nM biotin-NRF2 protein is then added to all wells of the plates and the plates are spun at 500 rpm for 1 minute, followed by incubating at 4° C. for 1.25 hours. The plates are then allowed to warm to RT for 15 minutes, followed by the addition of 10 ul of detection mix (1 nM Streptavidin Eu+ W1024 and 5 ug/ml mouse anti-DYKDDDDK IgG conjugated to SureLight APC antibody; both from Columbia Biosciences) to all wells. Plates are spun at 500 rpm for 1 minute, incubated for 1 hour at RT, and read on an Envision plate reader using a 320 nm excitation filter and 615 nm and 665 nm emission filters. Compound response (% inhibition) and potency (pIC50) are calculated based on the ratio of the two emissions (665 nm/615 nm) and then the transformed data is normalized against controls in the assay (control 1=1% DMSO in the presence of NRF2 and Keap1 protein and control 2=1% DMSO in the absence of protein). Data analysis is handled using the software package Abase XE (Surrey, United Kingdom). The % inhibition values are calculated from the ratio (transformed) data by the equation: 100−(100*(compound response-average control 2)/(average control 1−average control 2)).
For calculation of pIC50s, Abase XE uses a four parameter equation.
In general terms: TR-FRET usually uses a lanthanide donor and a delayed reading to cut background.

The next experiment deals with T2, Keap1/NRF2 (Homo sapiens, UniProt Q14145).
T2 construct: Keap1 (321-609) is diluted to 40 nM (2×) in 1× assay buffer
The experiment is described as follows: NRF2-Keap1 FP Assay (Kelch domain (321-609) of Keap1, TAMRA-labeled NRF2 ETGE peptide). The settings on record: Keap1 (321-609) 20 nM, Tamra labeled peptide 8 nM. The class given is binding. From the text:
One model for the NRF2-Keap1 interaction is through two binding sites in the Neh2 domain on NRF2. The two sites are referred to as the DLG binding motif (latch domain, uM affinity) and the ETGE binding motif (hinge domain, nM affinity). The Keap1 protein consists of an N-terminal region (NTR), a broad complex, tramtrack, and brick a′ brac domain (BTB), an intervening region (IVR), a double glycine repeat domain (DGR or Kelch), and a C-terminal region. The DLG and ETGE motifs of NRF2's Neh2 domain bind to the Kelch domain of Keap1 at different affinities. In the Keap1 Kelch fluorescence polarization (FP) assay, a TAMRA-labeled 16 mer peptide (AFFAQLQLDEETGEFL) containing the ETGE motif of NRF2 and the Kelch domain (321-609) of Keap1 is used. The assay determines if a compound interferes with the binding between Keap1 […] and the TAMRA-labeled peptide. Binding of TAMRA-labeled NRF2 peptide to Keap1 (321-609) results in a high FP signal. If a compound interferes with the binding between the peptide and the protein, it will cause the assay signal to decrease. Thus, assay signal is inversely proportional to binding inhibition.
100 nl of 100× compound dose response curves (serial 3-fold dilutions) in DMSO are stamped using an Echo liquid handling system (Labcyte) into 384-well low volume black assay plates (Greiner, #784076), with DMSO in columns 6 and 18. The top concentration of compound is located in columns 1 and 13. Keap1 (321-609) is diluted to 40 nM (2×) in 1× assay buffer (50 mM Tris, pH 8.0, 100 mM NaCl, 5 mM MgCl2, 1 mM DTT, 2 mM CHAPS, and 0.005% BSA) and 5 ul is added using a Multidrop Combi (Thermo Electron Corporation) equipped with a metal tip dispenser to all wells of the compound plate, except column 18. Column 18 receives only 5 ul of assay buffer. Immediately, 5 uL of 16 nM (2×) of Tamra labeled peptide (AFFAQLQLDEETGEFL, 21st Century Biochemicals) is added to all wells of the plate. The plates are spun at 500 rpm for 1 min, incubated for 1 hr at room temperature, and read on an Analyst GT (Molecular Devices) equipped with excitation (530/25 nm) and emission (580/10 nm) filters designed for Tamra probes. A 561 nm dichroic mirror is also used in the Analyst. The final assay concentrations of Keap1 (321-609) and Tamra labeled peptide are 20 nM and 8 nM, respectively. Fluorescence measurements, represented as mP, are used in the transformation of the data. Compound activity is calculated based on percent inhibition, normalized against controls in the assay (Control 1 contains the Tamra peptide and Keap1 (321-609) together (0% response) and control 2 contains the Tamra peptide alone (100% response)). Data analysis is handled using the software package Abase XE (Surrey, United Kingdom. The % inhibition values are calculated by the equation: 100−(100*((compound response-average control 2)/(average control 1−average control 2))). For calculation of pIC50s, Abase XE uses a four parameter equation.

T1 sequence (Q14145 whole entry): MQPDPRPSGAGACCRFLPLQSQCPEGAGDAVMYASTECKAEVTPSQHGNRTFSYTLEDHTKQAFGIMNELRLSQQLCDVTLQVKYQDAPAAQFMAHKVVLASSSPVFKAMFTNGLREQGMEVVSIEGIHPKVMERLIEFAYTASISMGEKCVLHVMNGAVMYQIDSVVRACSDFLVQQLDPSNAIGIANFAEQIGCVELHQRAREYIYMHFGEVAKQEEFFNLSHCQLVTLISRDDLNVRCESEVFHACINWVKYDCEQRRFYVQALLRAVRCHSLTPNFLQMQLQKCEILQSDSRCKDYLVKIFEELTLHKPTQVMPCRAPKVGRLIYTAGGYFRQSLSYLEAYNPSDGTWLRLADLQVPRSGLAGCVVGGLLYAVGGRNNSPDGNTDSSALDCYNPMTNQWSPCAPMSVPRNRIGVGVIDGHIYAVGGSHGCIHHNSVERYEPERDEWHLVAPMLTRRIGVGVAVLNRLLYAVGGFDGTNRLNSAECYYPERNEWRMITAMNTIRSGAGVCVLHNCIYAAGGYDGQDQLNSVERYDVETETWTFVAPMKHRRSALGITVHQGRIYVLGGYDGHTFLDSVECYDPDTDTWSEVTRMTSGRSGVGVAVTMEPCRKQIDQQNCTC
T2 sequence (Q14145 321-609): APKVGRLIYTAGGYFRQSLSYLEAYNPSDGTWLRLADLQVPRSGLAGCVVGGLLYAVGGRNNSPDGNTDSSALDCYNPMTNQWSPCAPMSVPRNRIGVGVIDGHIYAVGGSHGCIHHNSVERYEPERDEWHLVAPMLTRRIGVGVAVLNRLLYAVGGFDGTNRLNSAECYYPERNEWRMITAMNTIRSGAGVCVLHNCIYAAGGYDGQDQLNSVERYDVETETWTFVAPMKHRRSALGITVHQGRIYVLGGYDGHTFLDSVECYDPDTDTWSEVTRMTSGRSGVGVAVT

In general, EC50 refers to the concentration that produces a half-maximal response. As a reminder, the IC50 is the point on the concentration scale where inhibition reaches its midpoint. Lower therefore signals greater potency. Turning to `CCCC1CCc2cnn([C@@H]3CCC[C@H](c4cccc(-n5ncc(C(=O)O)c5C5CC5)c4)C3)c21` (mixture of isomers) [Example 16, 5-Cyclopropyl-1-[3-(3-{6-propyl-1H,4H,5H,6H-cyclopenta[c]pyrazol-1-yl}cyclohexyl)phenyl]-1H-pyrazole-4-carboxylic Acid], in experiment [1] (Homo sapiens, BEAS-2B, 48 h), the half-maximal effective concentration (EC50) fell in the range of 1 to 10 µM. For the same compound, the IC50 on NRF2/Keap1 is 1 to 10 µM; on Keap1/NRF2, 0.1 to 1 µM.

In the case of `CC1(C)CCc2cnn([C@H]3CCC[C@@H](c4cccc(-n5ncc(C(=O)O)c5C5CC5)c4)C3)c21` (racemic) [Example 24, 5-Cyclopropyl-1-(3-(-3-(6,6-dimethyl-5,6-dihydrocyclopenta[c]pyrazol-1(4H)-yl)cyclohexyl)phenyl)-1H-pyrazole-4-carboxylic Acid], the EC50 in experiment [1] (Homo sapiens, BEAS-2B, 48 h) is 1 to 10 µM. For the same compound, the values for the half-maximal inhibitory concentration (IC50) against NRF2/Keap1 and against Keap1/NRF2 were 1 to 10 µM and 0.1 to 1 µM, respectively.

`CC1CCN(C(=O)C2CCCC(c3cccc(-n4ncc(C(=O)O)c4C4CC4)c3)C2)C1` (racemic) [Example 25, 5-Cyclopropyl-1-{3-[3-(3-methyl-pyrrolidine-1-carbonyl)-cyclohexyl]-phenyl}-1H-pyrazole-4-carboxylic Acid] yielded an EC50 in experiment [1] (Homo sapiens, BEAS-2B, 48 h) of 1 to 10 µM. Besides, the IC50 is 1 to 10 µM at NRF2/Keap1 and 0.1 to 1 µM against Keap1/NRF2.

With `CCOC[C@@H]1CCCN1C(=O)C1CCCC(c2cccc(-n3ncc(C(=O)O)c3C3CC3)c2)C1` (single isomer, unassigned) [Example 18h], the concentration giving a half-maximal response (EC50) in experiment [1] (48 hours) was 1 to 10 µM. Also, the concentration for half-maximal inhibition (IC50) on NRF2/Keap1 and at Keap1/NRF2 was 1 to 10 µM each time.

On to `CCCCC1CCc2cnn([C@@H]3CCC[C@@H](c4cccc(-n5ncc(C(=O)O)c5C5CC5)c4)C3)c21` (stereo in doubt) [Example 37, 1-(3-((1,3-cis)-3-(6-Butyl-5,6-dihydrocyclopenta[c]pyrazol-1(4H)-yl)cyclohexyl)phenyl)-5-cyclopropyl-1H-pyrazole-4-carboxylic Acid], for which the EC50 in experiment [1] (48 hours) was in the range of 1 to 10 µM. In addition, the IC50 at NRF2/Keap1 fell in the range of 1 to 10 µM; on Keap1/NRF2, 0.1 to 1 µM.

Take `O=C(O)c1cnn(-c2cccc(C3CCC(n4ncc5c4CCCC5=O)C3)c2)c1C1CC1` (stereo not drawn) [Example 15, 5-Cyclopropyl-1-{3-[3-(4-oxo-4,5,6,7-tetrahydro-indazol-1-yl)-cyclopentyl]-phenyl}-1H-pyrazole-4-carboxylic Acid]: the EC50 in experiment [1] (Homo sapiens, BEAS-2B, 48 h) was in the range of 1 to 10 µM. Further, the figures for the IC50 at NRF2/Keap1 and against Keap1/NRF2 were 1 to 10 µM and 0.1 to 1 µM, respectively.

In the case of `O=C(O)c1cnn(-c2cccc(C3CCCC(C(=O)N4CCCCCC4)C3)c2)c1C1CC1` (stereo not drawn) [Example 20, 1-(3-(3-(Azepane-1-carbonyl)cyclohexyl)phenyl)-5-cyclopropyl-1H-pyrazole-4-carboxylic Acid], the EC50 in experiment [1] (Homo sapiens, BEAS-2B, 48 h) fell in the range of 1 to 10 µM. In addition, the IC50 against NRF2/Keap1 lay within 1 to 10 µM; on Keap1/NRF2, 0.1 to 1 µM.

In turn, `CN(C(=O)C1CCCC(c2cccc(-n3ncc(C(=O)O)c3C3CC3)c2)C1)C1CCCCC1` (stereo not drawn) [Example 21, 1-(3-(3-(Cyclohexyl(methyl)carbamoyl)cyclohexyl)phenyl)-5-cyclopropyl-1H-pyrazole-4-carboxylic Acid] came in with an EC50 in experiment [1] (Homo sapiens, BEAS-2B, 48 h) of 1 to 10 µM. For the same compound, the concentration for half-maximal inhibition (IC50) on NRF2/Keap1 lay within 1 to 10 µM; against Keap1/NRF2, 0.1 to 1 µM.

Take `CCCC1CCCCC1N(C)C(=O)C1CCCC(c2cccc(-n3ncc(C(=O)O)c3C3CC3)c2)C1` (stereo not drawn) [Example 22, 5-Cyclopropyl-1-(3-(3-(methyl(2-propylcyclohexyl)carbamoyl)cyclohexyl)phenyl)-1H-pyrazole-4-carboxylic Acid]: the 50% effective concentration (EC50) in experiment [1] (Homo sapiens, BEAS-2B, 48 h) was 1 to 10 µM. Also, the IC50 at NRF2/Keap1 was in the range of 1 to 10 µM; on Keap1/NRF2, 0.1 to 1 µM.

The values are drawn from patent US10351530B2, “Arylcyclohexyl pyrazoles as NRF2 regulators” (GlaxoSmithKline Intellectual Property Development Limited, priority 2015, dated 2019).
